One may read the melting point as the temperature, or range, at which the solid turns liquid. For `CCCCCCCCCCCCCC(=O)c1cc(O)c(C)cc1O`, the melting point amounted to 83 °C.
Next, `COc1nc(C(F)(F)C(F)(F)F)c(F)c(=O)n1-c1cc(OC(C)C)c(Cl)cc1F`: 69 to 71 °C.
Take `CCCCCCCCCCCCCCCCCCOc1cc(OCCCCCCc2cccc(O)c2O)cc(C(=O)O)c1`: the melting point was 92 to 94 °C.
`COc1ccc(C=O)cc1OCc1ccc2ccccc2c1` yielded a melting point of 80 °C.
`O=C1NC(=S)SC1=Cc1ccc(Oc2ccccc2)cc1` displayed a melting point of 195 to 200 °C.
The same measure for `COc1cccc2c(CCCCN(CC3CC3)C3COc4c(F)ccc(C(N)=O)c4C3)coc12` (stereo not drawn): 114 to 120 °C; for `Nc1ccccc1C(=O)c1ccc(F)cc1`: 125 to 127 °C.
Next, `Cc1cccc(C(=O)Nc2ccc(N3CCN(Cc4ccccc4)CC3)nc2)c1-c1ccc(C(C)C)cc1`: 138 to 140 °C.
`O=c1c(CCl)coc2c1COc1ccccc1-2` displayed a melting point of 163 to 165 °C.
Consider `CCc1nn(-c2ccc(C(=N)N)cc2)c(=O)n1-c1ccc(CCC(=O)OC(C)C)cc1`, for which the melting point is above 250 °C.
With `CSc1noc(-c2ccc(OCCOc3ccc([N+](=O)[O-])cc3)cc2)c1C#N`, the melting point was in the range of 170 to 171 °C.
Molecule `CCOC(=O)c1cc(Cl)c(OCCCc2cc(C)no2)c(Cl)c1` came in with a melting point of 49 to 50 °C.
In the case of `CC(C)c1nc(COCc2ccccc2)n(CC(C)(C)O)c1Sc1cc(Cl)cc(Cl)c1`, the melting point lay within 181 to 182 °C.
`Clc1ncnc2oc(-c3ccccc3)cc12` had a melting point of 136 to 138 °C.
In turn, `CC(=O)NCc1nnc(S)s1` returned a melting point of 200 to 203 °C.
Turning to `CN1CC(NCc2ccccc2)=Nc2ccc(Cl)cc2C1=O`, the melting point lay in the range of 158 to 160 °C.
The molecule `CC(=O)c1c(C#N)nn(-c2c(Cl)cc(C(F)(F)F)cc2Cl)c1N` returned a melting point of 200 to 201 °C.
`COC(=O)c1ccc(C#Cc2cc(C#Cc3ccc(C(=O)OC)cc3)cc(C#Cc3ccc(C(=O)OC)cc3)c2)cc1` showed a melting point of 177 °C.
Consider `COCC[C@H]1CN(C2=Nc3ccccc3Nc3ccc(C(F)(F)F)cc32)CCN1C`, for which the melting point was in the range of 48 to 56 °C.
In the case of `CCc1[nH]n(C2CCCC2)c2nc(-c3cc(C)nc(-n4ccnc4)c3)nc(=O)c1-2`, the melting point fell in the range of 277 to 278 °C.
`FC(F)(F)Oc1ccc(C2NCCc3ccccc32)cc1` (stereo not drawn): the melting point lay in the range of 56.6 to 57.1 °C.
In the case of `O=S(=O)(F)c1ccc(N=Nc2ccc(O)c(Cl)c2)cc1`, the melting point was 133 to 134 °C.
Molecule `CCOC(=O)c1coc2cc(NS(C)(=O)=O)c(Oc3ccccc3)cc2c1=O` showed a melting point of 167 to 168 °C.
Turning to `CC1(CCC#N)N=C(c2ccc(Cl)cc2)OC1=O` (stereo not drawn), the melting point is 97 to 98 °C.
`CCC(CC)O[C@@H]1C=C(C(=O)OC)C[C@H](CC(O)CO)[C@H]1NC(C)=O` (stereo partly drawn) registered a melting point of 125 to 126 °C.
For the molecule `CNC(=O)c1c[nH]c2ccc(C(=O)c3c(C)c(OC)c4ccccn34)cc2c1=O`, the melting point came out at 324 °C.
Next, `Nc1nc2ncn([C@H]3C=C[C@@H](O)C3)c2c(=O)[nH]1` (racemic): above 310 °C.
As for `Cc1ncsc1NC(=O)Nc1ccc(-n2nc(C3CC3)cc2C(F)(F)F)nc1`, the melting point is 244 to 247 °C.
`Cc1c(C)c2c(c(C)c1O)CCC(C)(COc1ccc(CC(Cl)C(=O)O)cc1)O2` (stereo not drawn) gave a melting point of 148 to 149 °C.
`Cc1c(CC(c2ccccc2)c2ccccc2)ncn1C(c1ccccc1)(c1ccccc1)c1ccccc1` registered a melting point of 205 to 206 °C.
In turn, `Cc1ccc(CCc2nc3cc(-c4ccc(S(=O)(=O)N(C)C)cc4)cnc3[nH]2)nc1N` displayed a melting point of 157 °C.
On to `COc1ccc(N2CCN(c3c(C)c(C)c4c(c3C)OC(C)(C)C4(O)c3ccc(C)cc3)CC2)cc1` (stereo not drawn), for which the melting point is 162 to 164 °C.
In the case of `O=C(CC(c1ccccc1)(c1ccccc1)c1ccccc1)Nc1ccc(N2CCNCC2)cc1`, the melting point lay within 193 to 195 °C.
